The target of assay [1] is kappa opioid receptors (KOR) (Homo sapiens, UniProt P41145). Description: kappa opioid receptor (KOR) Ki determination by NIMH PDSP. It is filed as binding. The method, then:
(§1) The compounds from the above Examples were tested for activity vs. kappa opioid receptors (KOR) and for Sigma-1 activity. Ki determinations were generously provided by the National Institute of Mental Health's Psychoactive Drug Screening Program (PDSP), Contract # HHSN-271-2013-00017-C (NIMH PDSP). The NIMH PDSP is Directed by Bryan L. Roth MD, PhD at the University of North Carolina at Chapel Hill and Project Officer Jamie Driscoll at NIMH, Bethesda Md. U.S.A. Procedures employed by the PDSP are described in the NIMH PDSP Assay Protocol Book, Version II.

The target of assay [2] is Sigma-1. Description: Sigma-1 Ki determination by NIMH PDSP. Type of assay: binding. The method, then:
as §1

pKi: −log10 of the molar value. A value given as a limit tells only on which side of the number the result lay.

kappa opioid receptors (KOR), sequence (P41145 whole entry): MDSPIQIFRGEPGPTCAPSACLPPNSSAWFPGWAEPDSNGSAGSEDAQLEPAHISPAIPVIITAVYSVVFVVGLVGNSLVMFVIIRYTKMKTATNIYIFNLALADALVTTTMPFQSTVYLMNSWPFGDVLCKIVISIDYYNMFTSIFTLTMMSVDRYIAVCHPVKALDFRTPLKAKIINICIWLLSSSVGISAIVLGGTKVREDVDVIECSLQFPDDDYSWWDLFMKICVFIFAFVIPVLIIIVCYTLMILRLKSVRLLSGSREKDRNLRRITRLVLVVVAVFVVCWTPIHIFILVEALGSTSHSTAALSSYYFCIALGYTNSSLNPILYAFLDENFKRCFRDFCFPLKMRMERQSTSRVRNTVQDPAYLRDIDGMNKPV

Regarding `CN[C@@]1(c2ccccc2Cl)CCCC[C@H]1NCCCc1ccccc1` (relative stereo) [Example 15b, Cis-1-(2-chlorophenyl)-N^2-(3-phenylpropyl)-N^1-methylcyclohexane-1,2-diamine], the results for the pKi in assay [1] and in assay [2] were 6.86 and 6.75, respectively.

As to `CN[C@]1(c2ccccc2Cl)CCCC[C@H]1NCCCN1CCN(C)CC1` (relative stereo) [Example 17a], the negative-log Ki (pKi) is under 6.00 in assay [1] and 7.72 in assay [2].

With `CN[C@@]1(c2ccccc2Cl)CCCC[C@H]1NCCCN1CCN(C)CC1` (relative stereo) [Example 17b], the pKi was under 6.00 in assay [1] and 7.14 in assay [2].

Take `CN[C@@]1(c2ccccc2Cl)CCCC[C@H]1NCCCN1CCOCC1` (relative stereo) [Example 16b]: the values for the negative-log Ki (pKi) in assay [1] and in assay [2] were 6.10 and 7.77, respectively.

As to `CN[C@@]1(c2ccccc2Cl)CCCC[C@H]1NC1CCCCC1` (relative stereo) [Example 18b, Cis-1-(2-chlorophenyl)-N^2-cyclohexyl-N^1-methylcyclohexane-1,2-diamine], the pKi in assay [1] is 6.22.

For `CN[C@]1(c2ccccc2Cl)CCCC[C@H]1NCCCc1ccccc1` (relative stereo) [Example 15a, Trans-1-(2-chlorophenyl)-N^2-(3-phenylpropyl)-N^1-methylcyclohexane-1,2-diamine], the negative-log Ki (pKi) was 6.28 in assay [1] and 5.65 in assay [2].

In the case of `CN[C@@]1(c2ccccc2Cl)CCCC[C@H]1NCCCn1ccnc1` (relative stereo) [Example 12b, Cis-1-(2-chlorophenyl)-N^2-(3-(1-imidazolyl)-propyl)-N^1-methylcyclohexane-1,2-diamine], the pKi was under 6.00 in assay [1] and 6.64 in assay [2].

The record behind these values is US9283196B1, “Cycloalkyl-diamines for CNS disorders” (MediSynergics, LLC, priority 2013, dated 2016).
